Experimental data published in PMC9080259, “Dual-cycle immobilization to reuse both enzyme and support by reblossoming enzyme–inorganic hybrid nanoflowers” (RSC Advances, 2018).
Where a name gives a salt, the structure may show the parent alone.

Tested on: T1, Bromelain
T1 construct: commercial native preparation
Assay: absorbance at […] nm, hydrolysis
Format: biochemical
Settings: free enzyme; 37 °C; pH not told; substrate of the kinetics taken from the activity assay

Km: 930 ± 40 µM
Compound: CCOC(=O)[C@H](CCCN=C(N)N)NC(=O)c1ccccc1 [N-Benzoyl-L-arginine ethyl ester hydrochloride]
